Some test systems named below: A549; ACHN; NCI-H522; UO-31; UACC-257; OVCAR-5; U-251; EKVX; KM12; MOLT-4; COLO 205; HCT-116; HOP-92; RPMI-8226; SNB-19.
What all share (experiment): NCI tumour cell line growth inhibition, 48 h

SMILES strings stand for the structures.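 Protocol summary: plate cells (96-well), add compound at 5 concentrations, incubate 48 h, interpolate endpoints linearly. Here, GI50 denotes the concentration required for 50% inhibition of growth.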 Activity calls are given as the source filed them. No stated cut-off is given here; in the data, active = GI50 up to about 1.1 µM and inactive = higher. A value given as a limit tells only on which side of the number the result lay.

The results in this text go back to ChEMBL document CHEMBL1201862, “PubChem BioAssay data set” (2004).

For `Cc1cc(N(CCC#N)CCC#N)ccc1/C=C1\N=C(c2cc([N+](=O)[O-])ccc2Cl)N(c2cccc(Cl)c2)C1=O`, the GI50 is > 100 µM (inactive) in the experiment with A549; > 100 µM (inactive) in the experiment with ACHN; 58.6 µM (inactive) in the experiment on NCI-H522; > 100 µM (inactive) with UO-31; > 100 µM (inactive) with UACC-257; > 100 µM (inactive) with OVCAR-5. The GI50 with U-251 was > 100 µM (inactive); with EKVX it was 23.8 µM (inactive); in the experiment with KM12 it was > 100 µM (inactive); in the experiment on MOLT-4 it was 79.6 µM (inactive); in the experiment with COLO 205, 87.7 µM (inactive); with HCT-116, > 100 µM (inactive). Moreover, the figures for the GI50 with HOP-92, with RPMI-8226 and in the experiment on SNB-19 were > 100 µM (inactive), > 100 µM (inactive) and < 0.01 µM (active), respectively.
Regarding `O=c1cc(-c2ccccc2)oc2cc(OCCSCCCCCCCCCCSCCOc3ccc4c(=O)cc(-c5ccccc5)oc4c3)ccc12`, the GI50 with A549 was > 100 µM (inactive); with ACHN, > 100 µM (inactive); in the experiment on NCI-H522, 94.2 µM (inactive); with UO-31, > 100 µM (inactive); in the experiment with UACC-257, > 100 µM (inactive); in the experiment on U-251, > 100 µM (inactive). Besides, the GI50 was > 100 µM (inactive) in the experiment on EKVX; > 100 µM (inactive) in the experiment with KM12; > 100 µM (inactive) in the experiment with MOLT-4; > 100 µM (inactive) in the experiment with COLO 205; > 100 µM (inactive) with HCT-116; 43.5 µM (inactive) in the experiment with HOP-92. The GI50 in the experiment on RPMI-8226 is > 100 µM (inactive); with SNB-19, 51.2 µM (inactive).
Regarding `O=C1[C@@H]2C(c3ccccc3F)=NO[C@@H]2C(=O)N1c1ccc(Cc2ccc(N3C(=O)[C@H]4C(c5ccccc5F)=NO[C@H]4C3=O)cc2)cc1`, the GI50 with A549, in the experiment with ACHN, with NCI-H522, in the experiment with UO-31, with UACC-257 and with OVCAR-5 was > 100 µM (inactive) in each case. The GI50 with U-251 is > 100 µM (inactive); in the experiment with EKVX it was > 100 µM (inactive); with KM12, > 100 µM (inactive); in the experiment with MOLT-4, 19.6 µM (inactive); with COLO 205, > 100 µM (inactive); with HCT-116 it was > 100 µM (inactive). Besides, the GI50 is 34.4 µM (inactive) in the experiment on HOP-92, 29.4 µM (inactive) in the experiment with RPMI-8226 and > 100 µM (inactive) in the experiment with SNB-19.
As to `O=C(O)c1[nH]c(C(=O)O)c(CC(F)(F)C(F)(F)C(F)(F)F)c1CC(F)(F)C(F)(F)C(F)(F)F`, the GI50 in the experiment with A549, in the experiment with ACHN, in the experiment with NCI-H522, in the experiment on UO-31, with UACC-257 and in the experiment with OVCAR-5 was > 100 µM (inactive) throughout. In addition, the GI50 was > 100 µM (inactive) with U-251; > 100 µM (inactive) in the experiment with EKVX; > 100 µM (inactive) in the experiment with KM12; > 100 µM (inactive) in the experiment with COLO 205; > 100 µM (inactive) in the experiment with HCT-116; 39.9 µM (inactive) in the experiment on HOP-92. The GI50 with RPMI-8226 and in the experiment on SNB-19 was > 100 µM (inactive) in each case.
Turning to `CNC(=O)NCCCC(NC(C)=O)C(=O)NCc1ccccc1` (stereo not drawn), the GI50 in the experiment on A549, with ACHN, in the experiment on NCI-H522, with UO-31, in the experiment with UACC-257 and in the experiment with OVCAR-5 was > 100 µM (inactive) each time. The GI50 with U-251, with EKVX, with KM12, with MOLT-4, in the experiment on COLO 205 and in the experiment with HCT-116 was > 100 µM (inactive) throughout. Further, the values for the GI50 in the experiment with HOP-92, in the experiment on RPMI-8226 and in the experiment with SNB-19 were 92.9 µM (inactive), > 100 µM (inactive) and > 100 µM (inactive), respectively.
Take `O=C1/C(=C\c2ccccc2)C2/C(=C\c3ccccc3)C(=O)/C(=C\c3ccccc3)C2/C1=C\c1ccccc1` (stereo not drawn): the GI50 in the experiment with A549 is 2.48 µM (inactive); in the experiment on ACHN it was 2.29 µM (inactive); with NCI-H522, 0.592 µM (active); in the experiment on UO-31 it was 1.7 µM (inactive); in the experiment with UACC-257 it was 1.79 µM (inactive); in the experiment with OVCAR-5 it was 1.41 µM (inactive). In addition, the GI50 with U-251 is 1.17 µM (inactive); in the experiment with EKVX, 3.89 µM (inactive); in the experiment with KM12, 1.42 µM (inactive); in the experiment on MOLT-4, 0.437 µM (active); in the experiment on COLO 205 it was 1.52 µM (inactive); with HOP-92, 1.69 µM (inactive). The GI50 with RPMI-8226 is 0.336 µM (active).
Consider `CCOC(=O)CCn1ncc(Cl)c(Cl)c1=O`, for which the GI50 in the experiment with A549 was 15.6 µM (inactive); with ACHN, 17 µM (inactive); with NCI-H522, 0.291 µM (active); in the experiment on UO-31, 15.7 µM (inactive); in the experiment with UACC-257 it was 11.2 µM (inactive); in the experiment on OVCAR-5, 16.7 µM (inactive). Besides, the GI50 with U-251 is 5.89 µM (inactive); in the experiment with EKVX, 18.7 µM (inactive); with KM12, 4.86 µM (inactive); in the experiment with MOLT-4, 3.13 µM (inactive); in the experiment with COLO 205, 9.23 µM (inactive); in the experiment with HCT-116, 11.9 µM (inactive). For the same compound, the GI50 was 11.9 µM (inactive) with HOP-92, 2.38 µM (inactive) with RPMI-8226 and 13.5 µM (inactive) in the experiment with SNB-19.
In the case of `COc1ccc(/C=c2/sc3n(c2=O)NC(c2ccc(Cl)cc2)NN=3)cc1` (stereo not drawn), the GI50 in the experiment on A549, in the experiment with NCI-H522, in the experiment on UO-31, with OVCAR-5, in the experiment with U-251 and in the experiment on EKVX was > 100 µM (inactive) each time. For the same compound, the GI50 in the experiment with KM12 was > 100 µM (inactive); in the experiment on MOLT-4, > 100 µM (inactive); with COLO 205 it was > 100 µM (inactive); in the experiment on HCT-116 it was > 100 µM (inactive); with HOP-92, 46.2 µM (inactive); in the experiment on SNB-19, > 100 µM (inactive).
On to `O=C(O)Cn1c(=O)[nH]c(=O)c2c1ncn2Cc1ccccc1`, for which the GI50 in the experiment on A549, in the experiment with ACHN, in the experiment with NCI-H522, in the experiment on UO-31, with OVCAR-5 and in the experiment with U-251 was > 100 µM (inactive) throughout. Besides, the GI50 with EKVX, in the experiment on KM12, in the experiment with MOLT-4, in the experiment with COLO 205, in the experiment on HCT-116 and in the experiment on HOP-92 was > 100 µM (inactive) each time. The GI50 with RPMI-8226 and with SNB-19 was > 100 µM (inactive) in each case.
With `O=C(c1ccccc1)C1OC12C(=O)Nc1ccccc12` (stereo not drawn), the GI50 in the experiment with A549 is 46.7 µM (inactive); with ACHN it was 56.9 µM (inactive); in the experiment on NCI-H522, 13.3 µM (inactive); with UO-31 it was 26.5 µM (inactive); in the experiment on UACC-257, 35.7 µM (inactive); in the experiment on OVCAR-5, > 100 µM (inactive). Also, the GI50 was 47.6 µM (inactive) in the experiment with EKVX; 8.15 µM (inactive) in the experiment on MOLT-4; 18 µM (inactive) with COLO 205; 36.2 µM (inactive) in the experiment on HCT-116; 20.3 µM (inactive) in the experiment on HOP-92; 20.7 µM (inactive) in the experiment with RPMI-8226. Besides, the GI50 in the experiment with SNB-19 is 37.3 µM (inactive).
`Nc1nnc2c(-c3ccccc3)n[nH]c2n1`: the GI50 was 23.5 µM (inactive) in the experiment with A549; 30 µM (inactive) in the experiment on ACHN; > 100 µM (inactive) in the experiment with NCI-H522; 28.2 µM (inactive) in the experiment with UO-31; 50.7 µM (inactive) with UACC-257; > 100 µM (inactive) with OVCAR-5. The GI50 was 5.9 µM (inactive) in the experiment on EKVX; 23.2 µM (inactive) in the experiment on KM12; 21.7 µM (inactive) with MOLT-4; 34.4 µM (inactive) in the experiment on COLO 205; > 100 µM (inactive) in the experiment on HCT-116; 12.6 µM (inactive) with HOP-92. Also, the figures for the GI50 with RPMI-8226 and with SNB-19 were 55.3 µM (inactive) and 57.1 µM (inactive), respectively.
As to `CSc1nnc2n1-c1ccccc1SCC2`, the GI50 with A549, with ACHN, in the experiment on NCI-H522, with UO-31, with UACC-257 and in the experiment on U-251 was > 100 µM (inactive) throughout. Also, the GI50 in the experiment on EKVX, in the experiment with KM12, with MOLT-4, in the experiment on COLO 205, in the experiment on HCT-116 and with HOP-92 was > 100 µM (inactive) throughout. Moreover, the GI50 in the experiment with RPMI-8226 and with SNB-19 was > 100 µM (inactive) each time.
`COc1nc(/C=N/NC(N)=S)nc(OC)n1`: the GI50 with A549 is 56.6 µM (inactive); with ACHN it was 43.8 µM (inactive); with NCI-H522, 75.5 µM (inactive); in the experiment with UO-31, 56.1 µM (inactive); with UACC-257, > 100 µM (inactive); in the experiment on OVCAR-5, > 100 µM (inactive). Further, the GI50 was 54.8 µM (inactive) with U-251; > 100 µM (inactive) in the experiment on EKVX; > 100 µM (inactive) with KM12; 56.8 µM (inactive) in the experiment on MOLT-4; > 100 µM (inactive) with COLO 205; 64.4 µM (inactive) with HCT-116. Besides, the GI50 in the experiment with HOP-92, with RPMI-8226 and with SNB-19 was > 100 µM (inactive) each time.
As to `NCCCC1NC(=O)/C(=C(O)/C=C/C2CCC[C@@H]2CC2SCCS2)C1=O` (stereo partly drawn), the GI50 in the experiment on A549 was > 100 µM (inactive); in the experiment with ACHN, > 100 µM (inactive); with NCI-H522, 29 µM (inactive); in the experiment with UO-31 it was > 100 µM (inactive); with UACC-257 it was 76.9 µM (inactive); in the experiment with OVCAR-5 it was > 100 µM (inactive). Besides, the GI50 is > 100 µM (inactive) in the experiment with U-251; > 100 µM (inactive) with EKVX; > 100 µM (inactive) in the experiment on KM12; 43.4 µM (inactive) in the experiment with MOLT-4; 37.2 µM (inactive) in the experiment with COLO 205; > 100 µM (inactive) with HCT-116. Besides, the results for the GI50 with HOP-92, in the experiment with RPMI-8226 and with SNB-19 were 38.3 µM (inactive), > 100 µM (inactive) and > 100 µM (inactive), respectively.
